The source of these data is patent US11845681B2, “Process and plant for treating wastewater containing micropollutants of pharmaceutical origin” (Cockerill Maintenance & Ingenierie S.A., priority 2018, dated 2023).

Series [1] in a line: Purification efficiency of biologically activated carbon (BAC) columns C1 to C5. Particulars: for average degradation: detailed analysis on 16 molecules, over column conditions; for effect of EBCT on degradation: longer EBCTs (e.g. 19 minutes). An excerpt: The activated carbon used was in GAC form, for example of the Norit 830W type (Cabot). According to the invention, however, several types of activated carbon may be used, by varying the nature of the carbon, the specific surface developed and the type of pores.
According to one embodiment, the GAC was conditioned for 2 months with the wastewater effluents coming from the MB-MBR before being placed in an acrylic glass column. Operation was monitored for approximately 5 months. The purpose of conditioning is to reduce the time before the breakthrough point of the filter, i.e. the moment when the adsorption capacity is exhausted and biodegradation is the dominant process.
The biological purification performance of micropollutants was evaluated according to the following methodology: • 1. Saturation of adsorption sites and verification by measuring the reduction in dissolved organic carbon; • 2. Evaluation of bacterial activity via measurements of oxygen consumption; • 3. Correlation analyzes between bacterial activity and micropollutant removal.
Based on the operational parameters selected for columns C1 to C5, the purification efficiencies of 12 of the 13 molecules indicative of the efficiency of the method are presented in FIG. 8.

Series [2] relates to fixed biomass. The settings on record: constant includes sorption, desorption and biodegradation; cited from earlier work.
The test system of series [3] is suspended biomass. The settings on record: constant includes sorption, desorption and biodegradation; cited from earlier work.

Molecules are shown by their SMILES. Where only a bound is given, the exact number is not on record here.

As to `O=P1(N(CCCl)CCCl)NCCCO1` (stereo not shown) [cyclophosphamide], in series [1], the average degradation entry is reported as “around 50%” and the “effect of EBCT on degradation” value is reported as “better degraded with longer EBCTs”.
As to `CC[C@H]1OC(=O)[C@H](C)[C@@H](O[C@H]2C[C@@](C)(OC)[C@@H](O)[C@H](C)O2)[C@H](C)[C@@H](O[C@@H]2O[C@H](C)C[C@H](N(C)C)[C@H]2O)[C@](C)(OC)C[C@@H](C)C(=O)[C@H](C)[C@@H](O)[C@]1(C)O` [Clarithromycin], in series [1], the average degradation result is reported as “around 50%” and the “effect of EBCT on degradation” value is “better degraded with longer EBCTs”. The “Kbio, Biomass Fixed” value in series [2] is listed as at most 0.2 l/g biomass · day. Further, the “Kbio, Biomass suspended” value in series [3] is on record as 0.18-0.29 l/g biomass · day.
With `CC(C)NCC(O)COc1ccc(CC(N)=O)cc1` (stereo not shown) [Atenolol], the “Kbio, Biomass Fixed” value in series [2] was 0.53-0.67 l/g biomass · day. The “Kbio, Biomass suspended” value in series [3] was 0.67-0.9 l/g biomass · day.
Regarding `CC(=O)Nc1ccc(S(=O)(=O)Nc2cc(C)on2)cc1` [N-acetylsulfamethoxazole], in series [2], the “Kbio, Biomass Fixed” value is given as 0.7-1.6 l/g biomass · day. Besides, the “Kbio, Biomass suspended” value in series [3] is recorded as 1.1-1.4 l/g biomass · day.
Take `O=C(O)Cc1ccccc1Nc1c(Cl)cccc1Cl` [Diclofenac]: in series [1], the average degradation result is recorded as “around 50%” and the “effect of EBCT on degradation” value is reported as “better degraded with longer EBCTs”. Also, the “Kbio, Biomass Fixed” value in series [2] is recorded as 1.3-1.7 l/g biomass · day. The “Kbio, Biomass suspended” value in series [3] is given as at most 0.1 l/g biomass · day.
As for `NC(=O)N1c2ccccc2C=Cc2ccccc21` [Carbamazepine], the “Kbio, Biomass Fixed” value in series [2] is recorded as at most 0.1 l/g biomass · day. Also, the “Kbio, Biomass suspended” value in series [3] is given as at most 0.1 l/g biomass · day.
